In brackets after ≈: the same amount, converted by molar mass.
How the values were obtained:
PC-3 [1] = experiment: Anticancer activity against human PC3 cells after 72 hrs by crystal violet biomass reduction assay; type: functional, cell-based; conditions: PC-3, 72 h
MCF7 [2] = experiment: Growth inhibition of human MCF7 cells at 20 uM after 72 hrs by crystal violet biomass reduction assay; type: functional; conditions: MCF7, 72 h, read-out: GI
MCF7 [3] = experiment: Anticancer activity against human MCF7 cells after 72 hrs by crystal violet biomass reduction assay; type: functional, cell-based; conditions: MCF7, 72 h
PC-3 [4] = experiment: Growth inhibition of human PC3 cells at 20 uM after 72 hrs by crystal violet biomass reduction assay; type: functional; conditions: PC-3, 72 h, read-out: GI
P388 = experiment: Cytotoxicity against mouse P388 cells; type: functional, cell-based

Row | Structure (SMILES) | IC50 (PC-3 [1]) [nM] | inhibition of growth at 20 µM (MCF7 [2]) [%] | IC50 (MCF7 [3]) [nM] | inhibition of growth at 20 µM (PC-3 [4]) [%] | IC50 (P388) [µg/mL]
1 | CCCCCCC[C@H](CC(=O)N[C@H]1CCCCN(O)C1=O)OC(=O)[C@H](CCCCN(O)C=O)NC(=O)c1nc(-c2ccccc2O)oc1C | 4000 | 94 | 200 | 72 | 
2 | CCCCCCC[C@@H](CC(=O)N[C@H]1CCCCN(O)C1=O)OC(=O)[C@H](CCCCN(O)C=O)NC(=O)c1nc(-c2ccccc2O)oc1C | 8000 | 91 | 320 | 62 | 
3 | CCCCCCC[C@H](CC(=O)N[C@H]1CCCCN(O)C1=O)NC(=O)[C@H](CCCCN(O)C=O)NC(=O)c1nc(-c2ccccc2O)oc1C | 9000 | 96 | 550 | 72 | 
4 | CCCCCCC[C@@H](CC(=O)N[C@H]1CCCCN(O)C1=O)NC(=O)[C@H](CCCCN(O)C=O)NC(=O)c1nc(-c2ccccc2O)oc1C | 14000 | 95 | 2000 | 68 | 
5 | CCCCCCC[C@H](CC(=O)N[C@H]1CCCCN(O)C1=O)OC(=O)[C@H](CCCCN(O)C=O)NC(=O)c1coc(-c2ccccc2O)n1 | 3750 | 91 | 450 | 85 | 
6 | CCCCCCC[C@@H](CC(=O)N[C@H]1CCCCN(O)C1=O)OC(=O)[C@H](CCCCN(O)C=O)NC(=O)c1coc(-c2ccccc2O)n1 | 9000 | 93 | 800 | 60 | 
7 | CCCCCCC[C@H](CC(=O)N[C@H]1CCCCN(O)C1=O)OC(=O)[C@H](CCCCN(O)C=O)NC(=O)[C@@H]1COC(c2ccccc2O)=N1 | 3000 | 87 | 240 | 83 | 
8 | CCCCCCC[C@@H](CC(=O)N[C@H]1CCCCN(O)C1=O)OC(=O)[C@H](CCCCN(O)C=O)NC(=O)[C@@H]1COC(c2ccccc2O)=N1 | 3000 | 89 | 500 | 79 | 
9 | CCCCCCC[C@H](CC(=O)N[C@H]1CCCCN(O)C1=O)OC(=O)[C@H](CCCCN(O)C=O)NC(=O)[C@H]1COC(c2ccccc2O)=N1 | 2000 | 92 | 320 | 90 | 
10 | CCCCCCC[C@@H](CC(=O)N[C@H]1CCCCN(O)C1=O)OC(=O)[C@H](CCCCN(O)C=O)NC(=O)[C@H]1COC(c2ccccc2O)=N1 | 7500 | 90 | 3000 | 79 | 
11 | CCCCCCC[C@H](CC(=O)N[C@H]1CCCCN(O)C1=O)OC(=O)[C@H](CCCCN(O)C=O)NC(=O)c1cccc(O)c1O |  | 86 | 6000 | 40 | 
12 | CCCCCCC[C@@H](CC(=O)N[C@H]1CCCCN(O)C1=O)OC(=O)[C@H](CCCCN(O)C=O)NC(=O)c1cccc(O)c1O | 7000 | 81 | 1000 | 63 | 
13 | CCCCCCC[C@H](OC(=O)[C@@H](CCCCN(O)C=O)NC(=O)c1nc(-c2ccccc2O)oc1C)C(C)(C)C(=O)N[C@H]1CCCCN(O)C1=O |  |  |  |  | 0.016 (≈ 0.0224 µM)
14 | CCCCCCC[C@H](OC(=O)[C@@H](CCCCN(O)C=O)NC(=O)c1nc(-c2cc(OC)ccc2O)oc1C)C(C)(C)C(=O)N[C@H]1CCCCN(O)C1=O [AMAMISTATIN A] |  |  |  |  | 0.015 (≈ 0.0201 µM)
